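The compound was tested at five concentrations on cells cultured in 96-well plates, with a 48-hour exposure period. GI50: concentration for 50% inhibition of growth.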 The source made the active and inactive calls. No stated cut-off is given here; in the data, active = GI50 up to about 1.1 µM and inactive = higher.
How the values were obtained:
Test in all cases: NCI-60 cell line screen, 48 h
HOP-62 = system: HOP-62
NCI-H226 = system: NCI-H226
UO-31 = system: UO-31
CCRF-CEM = system: CCRF-CEM
CAKI-1 = system: CAKI-1
HCT-116 = system: HCT-116
UACC-257 = system: UACC-257
EKVX = system: EKVX
NCI/ADR-RES = system: NCI/ADR-RES
RXF 393 = system: RXF 393
TK-10 = system: TK-10
LOX IMVI = system: LOX IMVI
HCC 2998 = system: HCC 2998
IGROV-1 = system: IGROV-1
MDA-N = system: MDA-N
NCI-H522 = system: NCI-H522
MDA-MB-435 = system: MDA-MB-435
SK-MEL-28 = system: SK-MEL-28
OVCAR-5 = system: OVCAR-5
NCI-H460 = system: NCI-H460

Nc1cc(F)ccc1CC(=O)O
GI50 (HOP-62): > 100 µM (inactive)
GI50 (NCI-H226): > 100 µM (inactive)
GI50 (UO-31): > 100 µM (inactive)
GI50 (CCRF-CEM): > 100 µM (inactive)
GI50 (CAKI-1): > 100 µM (inactive)
GI50 (HCT-116): > 100 µM (inactive)
GI50 (UACC-257): > 100 µM (inactive)
GI50 (EKVX): > 100 µM (inactive)
GI50 (NCI/ADR-RES): > 100 µM (inactive)
GI50 (RXF 393): > 100 µM (inactive)
GI50 (TK-10): > 100 µM (inactive)
GI50 (LOX IMVI): > 100 µM (inactive)
GI50 (HCC 2998): > 100 µM (inactive)
GI50 (IGROV-1): > 100 µM (inactive)
GI50 (MDA-N): > 100 µM (inactive)
GI50 (NCI-H522): > 100 µM (inactive)
GI50 (MDA-MB-435): > 100 µM (inactive)
GI50 (SK-MEL-28): > 100 µM (inactive)
GI50 (OVCAR-5): > 100 µM (inactive)

Cc1ccc2c(c1C)CC1(Cc3ccc(C)c(C)c3C1=O)C2=O (stereo not drawn)
GI50 (NCI-H226): 52.1 µM (inactive)
GI50 (UO-31): > 100 µM (inactive)
GI50 (CCRF-CEM): > 100 µM (inactive)
GI50 (CAKI-1): 44.2 µM (inactive)
GI50 (HCT-116): > 100 µM (inactive)
GI50 (NCI-H460): > 100 µM (inactive)
GI50 (UACC-257): > 100 µM (inactive)
GI50 (EKVX): 44.2 µM (inactive)
GI50 (NCI/ADR-RES): > 100 µM (inactive)
GI50 (RXF 393): 17.1 µM (inactive)
GI50 (TK-10): 29.7 µM (inactive)
GI50 (LOX IMVI): > 100 µM (inactive)
GI50 (HCC 2998): > 100 µM (inactive)
GI50 (IGROV-1): 21.7 µM (inactive)
GI50 (MDA-N): > 100 µM (inactive)
GI50 (NCI-H522): > 100 µM (inactive)
GI50 (MDA-MB-435): > 100 µM (inactive)
GI50 (SK-MEL-28): > 100 µM (inactive)
GI50 (OVCAR-5): > 100 µM (inactive)

Cn1c2c(c3ccccc31)CCN1C(=O)CCC21 (stereo not drawn)
GI50 (HOP-62): > 10 µM (inactive)
GI50 (NCI-H226): > 10 µM (inactive)
GI50 (UO-31): > 10 µM (inactive)
GI50 (CCRF-CEM): > 10 µM (inactive)
GI50 (CAKI-1): > 10 µM (inactive)
GI50 (NCI-H460): > 10 µM (inactive)
GI50 (UACC-257): > 10 µM (inactive)
GI50 (EKVX): > 10 µM (inactive)
GI50 (NCI/ADR-RES): > 10 µM (inactive)
GI50 (RXF 393): > 10 µM (inactive)
GI50 (TK-10): > 10 µM (inactive)
GI50 (LOX IMVI): > 10 µM (inactive)
GI50 (HCC 2998): > 10 µM (inactive)
GI50 (IGROV-1): > 10 µM (inactive)
GI50 (MDA-N): > 10 µM (inactive)
GI50 (NCI-H522): > 10 µM (inactive)
GI50 (MDA-MB-435): > 10 µM (inactive)
GI50 (SK-MEL-28): > 10 µM (inactive)
GI50 (OVCAR-5): > 10 µM (inactive)

Cn1c([C@H](C#N)c2ncccc2[N+](=O)[O-])nc2ccccc21
GI50 (HOP-62): 24.5 µM (inactive)
GI50 (NCI-H226): > 100 µM (inactive)
GI50 (UO-31): > 100 µM (inactive)
GI50 (CCRF-CEM): 0.632 µM (active)
GI50 (CAKI-1): > 100 µM (inactive)
GI50 (HCT-116): > 100 µM (inactive)
GI50 (NCI-H460): 76.4 µM (inactive)
GI50 (UACC-257): > 100 µM (inactive)
GI50 (EKVX): 56 µM (inactive)
GI50 (NCI/ADR-RES): 78.2 µM (inactive)
GI50 (RXF 393): 19.5 µM (inactive)
GI50 (TK-10): > 100 µM (inactive)
GI50 (LOX IMVI): > 100 µM (inactive)
GI50 (HCC 2998): > 100 µM (inactive)
GI50 (MDA-N): > 100 µM (inactive)
GI50 (NCI-H522): 14.4 µM (inactive)
GI50 (MDA-MB-435): > 100 µM (inactive)
GI50 (SK-MEL-28): > 100 µM (inactive)
GI50 (OVCAR-5): > 100 µM (inactive)

O=C1C(C(O)(C(F)(F)Cl)C(F)(F)Cl)CCC1C(O)(C(F)(F)Cl)C(F)(F)Cl (stereo not drawn)
GI50 (HOP-62): 5.57 µM (inactive)
GI50 (NCI-H226): 3.6 µM (inactive)
GI50 (CAKI-1): 3.4 µM (inactive)
GI50 (HCT-116): 2.5 µM (inactive)
GI50 (NCI-H460): > 10 µM (inactive)
GI50 (UACC-257): 2.79 µM (inactive)
GI50 (EKVX): 4.1 µM (inactive)
GI50 (NCI/ADR-RES): > 10 µM (inactive)
GI50 (RXF 393): 5.05 µM (inactive)
GI50 (TK-10): 5.52 µM (inactive)
GI50 (LOX IMVI): 3.94 µM (inactive)
GI50 (HCC 2998): 3.42 µM (inactive)
GI50 (IGROV-1): 4.98 µM (inactive)
GI50 (MDA-N): > 10 µM (inactive)
GI50 (NCI-H522): 4.45 µM (inactive)
GI50 (MDA-MB-435): > 10 µM (inactive)
GI50 (SK-MEL-28): 3.42 µM (inactive)
GI50 (OVCAR-5): 5.43 µM (inactive)

O=CN1CCN(C(=O)c2cc(Cl)cc(Cl)c2)C1=S
GI50 (HOP-62): 15.2 µM (inactive)
GI50 (NCI-H226): 14.7 µM (inactive)
GI50 (CCRF-CEM): 5.38 µM (inactive)
GI50 (CAKI-1): 13.3 µM (inactive)
GI50 (HCT-116): 18.6 µM (inactive)
GI50 (NCI-H460): 22.5 µM (inactive)
GI50 (UACC-257): 17.4 µM (inactive)
GI50 (EKVX): 17.9 µM (inactive)
GI50 (NCI/ADR-RES): 28.9 µM (inactive)
GI50 (RXF 393): 16 µM (inactive)
GI50 (TK-10): 15.3 µM (inactive)
GI50 (LOX IMVI): 7.13 µM (inactive)
GI50 (HCC 2998): 17.6 µM (inactive)
GI50 (IGROV-1): 18.5 µM (inactive)
GI50 (MDA-N): 18.8 µM (inactive)
GI50 (NCI-H522): 3.5 µM (inactive)
GI50 (MDA-MB-435): 14.2 µM (inactive)
GI50 (SK-MEL-28): 18.4 µM (inactive)
GI50 (OVCAR-5): 21.9 µM (inactive)

Source: ChEMBL document CHEMBL1201862, “PubChem BioAssay data set” (2004)
